± gives the expanded uncertainty stated by the source.
Legend:
[1] = xn = mol fraction of the nth substance listed; conditions: 313.15 K, Fluid (supercritical or subcritical phases), x1 = 1
[2] = refractive index (Na D-line) (dimensionless); conditions: 298.15 K; 101.33 kPa; Liquid; Standard Abbe refractometry
[3] = 313.15 K, 1000 kPa, Fluid (supercritical or subcritical phases)
[4] = 313.15 K, 2000 kPa, Fluid (supercritical or subcritical phases)
[5] = 313.15 K, 3000 kPa, Fluid (supercritical or subcritical phases)
[6] = 313.15 K, 4000 kPa, Fluid (supercritical or subcritical phases)
[7] = 313.15 K, 5000 kPa, Fluid (supercritical or subcritical phases)
[8] = 313.15 K, 6000 kPa, Fluid (supercritical or subcritical phases)
[9] = 313.15 K, 7000 kPa, Fluid (supercritical or subcritical phases)
[10] = 313.15 K, 8000 kPa, Fluid (supercritical or subcritical phases)
[11] = 313.15 K, 9000 kPa, Fluid (supercritical or subcritical phases)
[12] = 313.15 K, 10000 kPa, Fluid (supercritical or subcritical phases)

mass density [3] | mass density [4] | mass density [5] | mass density [6] | mass density [7] | mass density [8] | mass density [9] | mass density [10] | mass density [11] | mass density [12] | other results | Compound
17.8 ± 0.2 kg/m3 | 37.3 ± 0.2 kg/m3 | 58.6 ± 0.3 kg/m3 | 83.4 ± 0.4 kg/m3 | 112.5 ± 0.5 kg/m3 | 148.7 ± 0.8 kg/m3 | 197.5 ± 1.2 kg/m3 | 276.7 ± 2.7 kg/m3 | 482.6 ± 3.9 kg/m3 | 627.3 ± 3.5 kg/m3 |  | O=C=O [carbon dioxide]
 |  |  |  |  |  |  |  |  |  | mass density ([1]; 1000 kPa): 17.8 ± 0.2 kg/m3; mass density ([1]; 2000 kPa): 37.3 ± 0.2 kg/m3; mass density ([1]; 3000 kPa): 58.6 ± 0.3 kg/m3; mass density ([1]; 4000 kPa): 83.4 ± 0.4 kg/m3; mass density ([1]; 5000 kPa): 112.5 ± 0.5 kg/m3; mass density ([1]; 6000 kPa): 148.7 ± 0.8 kg/m3; mass density ([1]; 7000 kPa): 197.5 ± 1.2 kg/m3; mass density ([1]; 8000 kPa): 276.7 ± 2.7 kg/m3; mass density ([1]; 9000 kPa): 482.6 ± 3.9 kg/m3; mass density ([1]; 10000 kPa): 627.3 ± 3.5 kg/m3 | O=C=O [carbon dioxide] + CCOC(C)=O
876.9 ± 0.4 kg/m3 | 878 ± 0.4 kg/m3 | 878.9 ± 0.4 kg/m3 | 880 ± 0.4 kg/m3 | 881 ± 0.4 kg/m3 | 881.9 ± 0.4 kg/m3 | 882.9 ± 0.5 kg/m3 | 883.9 ± 0.5 kg/m3 | 884.9 ± 0.5 kg/m3 | 885.9 ± 0.5 kg/m3 | mass density (298.15 K, 101.33 kPa, Liquid): 894.4 ± 0.3 kg/m3; Normal boiling temperature (Liquid, ebulliometry): 77.06 ± 0.05 °C; refractive index [2]: 1.3702 ± 0.3 | CCOC(C)=O [ethyl acetate]

Reference: the NIST ThermoML archive (doi:10.1021/je050514j)
